Data: US20210221848A1, “POLYMYXIN DERIVATIVES AND THEIR USE IN COMBINATION THERAPY TOGETHER WITH DIFFERENT ANTIBIOTICS” (priority 2014, published 2021)
Like-named read-outs stand apart in the source and are kept apart here.

Legend:
A. baumannii [1] = test system: A. baumannii
K. pneumoniae [2] = test system: K. pneumoniae
K. pneumoniae [3] = assay: MIC in the presence of a fixed concentration (2 μg/mL) of Rifampicin; type: cell-based, Klebsiella pneumoniae; settings: Rifampicin 2 μg/mL, Table 5D
HK-2 cell line = assay: In vitro renal cell toxicity assay (resazurin reduction)
Description: MICs were determined as described herein. HK-2 cell IC50 values were determined as described herein. Values are reported relative to Polymyxin B.

E. coli [4] = assay: MIC in the presence of a fixed concentration (2 μg/mL) of Rifampicin; type: cell-based, Escherichia coli; settings: Rifampicin 2 μg/mL, Table 5D
E. coli [5] = test system: E. coli
A. baumannii [6] = assay: MIC in the presence of […] of rifampicin; type: cell-based, Acinetobacter baumannii
P. aeruginosa [7] = test system: P. aeruginosa
P. aeruginosa [8] = assay: MIC in 1:1 (wt:wt) combination with Rifampicin; type: cell-based, Pseudomonas aeruginosa; settings: 1:1 (wt:wt) with Rifampicin, total drug concentration
Description: (§1) The inoculum was prepared by making a direct suspension of isolated colonies (selected from an 18-24 hour Mueller-Hinton agar plate) adjusted to the 0.5 McFarland standard. […] The assays were performed in duplicate. […] In cases where the duplicate values varied by less than 2-fold, the lower of the two values is reported. If a variation of greater than 2-fold was observed, the assay was considered non-valid. Several of the compounds were subjected to multiple tests, and where this is the case, the MIC reflects the modal value obtained.
(§2) MIC values (microgram/mL) refer to the total drug concentration (i.e. test agent plus Rifampicin).

[9] = test system: Acinetobacter baumannii NCTC 13301; settings: for Mean log10 CFU reduction vs. control: mouse lungs, A. baumannii NCTC 13301, SC at 2, 6 and 10 h post-infection, 16 h infection model
Description: On Day 0, animals were infected with 0.04 mL inoculum by intranasal instillation into mouse nostrils and were kept in an upright position on a string rack for ˜10 min post-infection. […] The vehicle control group (7 mice) was treated with 0.9% saline for injection at 2, 6 and 10 h post-infection.
Sixteen hours after infection, the mice were euthanized humanely. The lungs of each animal were harvested, homogenized and quantitatively cultured onto CLED agar for CFU determination. Decrease of the total CFU compared to control counts at 16 h post-infection was determined for each dose group.

A. baumannii [10] = assay: MIC in 1:1 (wt:wt) combination with Rifampicin; type: cell-based, Acinetobacter baumannii; settings: 1:1 (wt:wt) with Rifampicin, total drug concentration
Description: as §1, §2

[11] = test system: E. coli strains with elevated MICs to Polymyxin B; assay: MIC against strains with elevated MICs to Polymyxin B; type: cell-based, Escherichia coli; settings: Table 6D
Method in brief: (§3)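 Inoculum was a direct suspension of colonies from an 18-24 hour Mueller-Hinton agar plate, adjusted to the 0.5 McFarland standard. Duplicate assays; the lower value was reported when duplicates differed by less than 2-fold, otherwise the run was invalid. Repeat-tested compounds give the modal MIC.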

E. coli [12] = assay: MIC in 1:1 (wt:wt) combination with Rifampicin; type: cell-based, Escherichia coli; settings: 1:1 (wt:wt) with Rifampicin, total drug concentration
Description: as §1, §2

[13] = test system: Acinetobacter baumannii NCTC 13301; settings: mouse thigh, 16 h model
K. pneumoniae [14] = assay: MIC in 1:1 (wt:wt) combination with Rifampicin; type: cell-based, Klebsiella pneumoniae; settings: 1:1 (wt:wt) with Rifampicin, total drug concentration
Description: as §1, §2

[15] = test system: P. aeruginosa strains with elevated MICs to Polymyxin B; assay: MIC against strains with elevated MICs to Polymyxin B; type: cell-based, Pseudomonas aeruginosa; settings: Table 6D
Method in brief: as §3

[16] = test system: K. pneumoniae strains with elevated MICs to Polymyxin B; assay: as above; type: cell-based, Klebsiella pneumoniae; settings: Table 6D
Method in brief: as §3

[17] = test system: A. baumanii strains with elevated MICs to Polymyxin B; assay: as above; type: cell-based, Acinetobacter baumannii; settings: Table 6D
Method in brief: as §3

[18] = absence of a second agent, Table 6B

## 3-Amino-2- benzylpropanoylpoly- myxin B nonapeptide [Example D5]
A. baumannii [1]; [18]
  MIC, A. baumannii ATCC BAA-747: >8 micrograms/mL
  MIC, A. baumannii NCTC 13424: >8 micrograms/mL
K. pneumoniae [2]; [18]
  MIC, K. pneumoniae ATCC 4352: 8 micrograms/mL
  MIC, K. pneumoniae ATCC BAA-2146: >8 micrograms/mL
K. pneumoniae [3]; K. pneumoniae ATCC 4352
  MIC in combination with Rifampicin, K. pneumoniae ATCC 4352: 0.03 micrograms/mL
K. pneumoniae [3]; K. pneumoniae ATCC BAA-2146
  MIC in combination with Rifampicin, K. pneumoniae ATCC BAA-2146: 0.25 micrograms/mL
HK-2 cell line
  HK-2 IC50 rel to PMB: 15.3
E. coli [4]; E. coli ATCC 25922
  MIC in combination with Rifampicin, E. coli ATCC 25922: 0.03 micrograms/mL
E. coli [4]; E. coli NCTC 13441
  MIC in combination with Rifampicin, E. coli NCTC 13441: 0.06 micrograms/mL
E. coli [5]; [18]
  MIC, E. coli ATCC 25922: 8 micrograms/mL
  MIC, E. coli NCTC 13441: >8 micrograms/mL
A. baumannii [6]; A. baumannii ATCC BAA-747, Table 5D
  MIC in combination with Rifampicin, A. baumannii ATCC BAA-747: 0.25 micrograms/mL
A. baumannii [6]; A. baumannii NCTC 13424, Table 5D
  MIC in combination with Rifampicin, A. baumannii NCTC 13424: ≤0.015 micrograms/mL
P. aeruginosa [7]; [18]
  MIC, P. aeruginosa ATCC 27853: 1 micrograms/mL
  MIC, P. aeruginosa CCUG 59347: >8 micrograms/mL

## (trans-5-(isobutyl- piperidine)-3- carbonyl L-Thr-L- Dap-polymyxin B heptapeptide [Example D65]
P. aeruginosa [8]; P. aeruginosa 063
  MIC in 1:1 combination with rifampicin, P. aeruginosa 063: 16 microgram/mL
P. aeruginosa [8]; P. aeruginosa 068
  MIC in 1:1 combination with rifampicin, P. aeruginosa 068: 1 microgram/mL
A. baumannii [1]; sole activity, Table 6C
  MIC, A. baumannii ATCC BAA-747: 0.06 micrograms/mL
  MIC, A. baumannii NCTC 13424: 0.125 micrograms/mL
K. pneumoniae [2]; sole activity, Table 6C
  MIC, K. pneumoniae ATCC 4352: 0.03 micrograms/mL
  MIC, K. pneumoniae ATCC BAA-2146: 0.125 micrograms/mL
[9]; mouse lung, all doses (2.6, 8.6, 17.2 and 25.8 mg/kg free base), SC at 2, 6 and 10 h, 16 h
  efficacy compared with polymyxin B: greater efficacy than observed with the equivalent dose of polymyxin B
[9]; 2.6 mg/kg/dose free base
  Mean log10 CFU reduction vs. control: 1.07 log10 CFU
[9]; 8.6 mg/kg/dose free base
  Mean log10 CFU reduction vs. control: 1.91 log10 CFU
[9]; 17.2 mg/kg/dose free base
  Mean log10 CFU reduction vs. control: 2.89 log10 CFU
[9]; 25.8 mg/kg/dose free base
  Mean log10 CFU reduction vs. control: 8.15 log10 CFU
A. baumannii [10]; A. baumannii 053
  MIC in 1:1 combination with rifampicin, A. baumannii 053: ≤0.5 microgram/mL
A. baumannii [10]; A. baumannii 056
  MIC in 1:1 combination with rifampicin, A. baumannii 056: ≤0.5 microgram/mL
[11]; strain 058, elevated MIC to Polymyxin B
  MIC E. coli 058: 1 micrograms/mL
[11]; strain 059, elevated MIC to Polymyxin B
  MIC E. coli 059: 2 micrograms/mL
[11]; strain 060, elevated MIC to Polymyxin B
  MIC E. coli 060: 1 micrograms/mL
[11]; strain 061, elevated MIC to Polymyxin B
  MIC E. coli 061: 2 micrograms/mL
E. coli [12]; E. coli 058
  MIC in 1:1 combination with rifampicin, E. coli 058: ≤0.5 microgram/mL
E. coli [12]; E. coli 059
  MIC in 1:1 combination with rifampicin, E. coli 059: ≤0.5 microgram/mL
E. coli [12]; E. coli 060
  MIC in 1:1 combination with rifampicin, E. coli 060: ≤0.5 microgram/mL
E. coli [12]; E. coli ATCC 25922
  MIC in 1:1 combination with rifampicin, E. coli ATCC 25922: ≤0.5 microgram/mL
[13]; 0.215 mg/kg/dose free base SC at 2, 6 and 10 h post-infection
  Mean log10 CFU reduction vs. control: 0.71 log10 CFU
[13]; 0.86 mg/kg/dose free base SC at 2, 6 and 10 h post-infection
  Mean log10 CFU reduction vs. control: 2.40 log10 CFU
[13]; 2.6 mg/kg/dose free base SC at 2, 6 and 10 h post-infection
  Mean log10 CFU reduction vs. control: 5.42 log10 CFU
[13]; 8.6 mg/kg/dose free base SC at 2, 6 and 10 h post-infection
  Mean log10 CFU reduction vs. control: 6.05 log10 CFU
[13]; 17.2 mg/kg/dose free base SC at 2, 6 and 10 h post-infection
  Mean log10 CFU reduction vs. control: 6.59 log10 CFU
K. pneumoniae [14]; K. pneumoniae 062
  MIC in 1:1 combination with rifampicin, K. pneumoniae 062: 1 microgram/mL
K. pneumoniae [14]; K. pneumoniae CCUG 59348
  MIC in 1:1 combination with rifampicin, K. pneumoniae CCUG 59348: 1 microgram/mL
[15]; strain 065, elevated MIC to Polymyxin B
  MIC P. aeruginosa 065: 2 micrograms/mL
[15]; strain 066, elevated MIC to Polymyxin B
  MIC P. aeruginosa 066: 1 micrograms/mL
[15]; strain 067, elevated MIC to Polymyxin B
  MIC P. aeruginosa 067: 64 micrograms/mL
E. coli [5]; sole activity, Table 6C
  MIC, E. coli ATCC 25922: 0.03 micrograms/mL
  MIC, E. coli NCTC 13441: 0.06 micrograms/mL
[16]; strain 062, elevated MIC to Polymyxin B
  MIC K. pneumoniae 062: 32 micrograms/mL
[16]; strain 063, elevated MIC to Polymyxin B
  MIC K. pneumoniae 063: 8 micrograms/mL
[16]; strain 064, elevated MIC to Polymyxin B
  MIC K. pneumoniae 064: 2 micrograms/mL
[16]; strain 655, elevated MIC to Polymyxin B
  MIC K. pneumoniae 655: 4 micrograms/mL
[17]; strain 053, elevated MIC to Polymyxin B
  MIC A. baumannii 053: 16 micrograms/mL
[17]; strain 056, elevated MIC to Polymyxin B
  MIC A. baumannii 056: 1 micrograms/mL
[17]; strain 068, elevated MIC to Polymyxin B
  MIC A. baumannii 068: 2 micrograms/mL
[17]; strain 070, elevated MIC to Polymyxin B
  MIC A. baumannii 070: 4 micrograms/mL
P. aeruginosa [7]; sole activity, Table 6C
  MIC, P. aeruginosa ATCC 27853: 0.25 micrograms/mL
  MIC, P. aeruginosa CCUG 59347: 0.25 micrograms/mL
